# Assay results from patent publication US11753446B2, “Beta-hairpin peptidomimetics” (POLYPHOR AG, priority 2014, dated 2023).
# Where a SMILES comes first, the peptide text is derived from it. Bridges are numbered along the chain shown (N, C = ends). Triazole bridges read from a SMILES are 1,4-linked. [ ]: non-standard residue; d: D form. Aha = [N-]=[N+]=NCC[C@H](N)C(=O)O; dPen = CC(C)(S)[C@@H](N)C(=O)O; Chg = N[C@H](C(=O)O)C1CCCCC1; Tle = CC(C)(C)[C@H](N)C(=O)O; dDab = NCC[C@@H](N)C(=O)O; Orn = NCCC[C@H](N)C(=O)O; Pra = C#CC[C@H](N)C(=O)O; Dab = NCC[C@H](N)C(=O)O; Dap = NC[C@H](N)C(=O)O
# Experiments:
# [1] = system: human red blood cells (hRBC); experiment: Hemolysis: hemolytic activity at 100 μg/mL, 1 h at 37° C.; settings: red cells of human, 1 h, 100
# Outline: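 Peptides at 100 μg/mL incubated with washed 20% (v/v) human erythrocytes (~0.9×10^9 cells/mL) for 1 h at 37 °C with shaking. Released hemoglobin read at OD 540 nm in supernatant; 0% and 100% lysis from PBS/0.001% acetic acid and 2.5% Triton X-100.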
# [2] = system: Klebsiella pneumoniae ATCC 13883; assay type: cell-based; settings: ATCC 13883
# Outline: (§1)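 Peptide MICs were determined by NCCLS broth microdilution in cation-adjusted Mueller-Hinton II broth. Inoculum was about 10^6 CFU/mL, matched to 0.5 McFarland, with peptides in two-fold serial dilutions. The broth contained Polysorbate 80 at 0.002% final concentration.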
# [3] = system: Escherichia coli ATCC 25922; assay type: cell-based; settings: ATCC 25922
# Outline: as §1
# [4] = system: Acinetobacter baumannii DSM 30008; assay type: cell-based; settings: DSM 30008
# Outline: as §1
SMILES,Klebsiella pneumoniae ATCC 13883 MIC [2] [µg/mL],Escherichia coli ATCC 25922 MIC [3] [µg/mL],Acinetobacter baumannii DSM 30008 MIC [4] [µg/mL],Hemolysis at 100 μg/mL [1] [%]
"CC(C)C[C@@H]1NC(=O)[C@@H]2CCCN2C(=O)[C@@H](C)NC(=O)[C@H](CO)NC(=O)[C@@H]2CC(=O)NCC[C@H](NC1=O)C(=O)N[C@@H](Cc1ccc(O)cc1)C(=O)N[C@@H](CCN)C(=O)N[C@@H](CCN)C(=O)N[C@@H](CCN)C(=O)N[C@@H](CCN)C(=O)N[C@@H](Cc1c[nH]c3ccccc13)C(=O)N[C@@H](CCN)C(=O)N[C@@H](C(C)(C)C)C(=O)N2 [Example 26, cyclo(-Leu-Dab-Tyr-Dab-Dab-Dab-Dab-Trp-Dab-tBuGly-Asp-Ser-^DAla-Pro-)] (HELM PEPTIDE1{D.S.[dA].P.L.[Dab].Y.[Dab].[Dab].[Dab].[Dab].W.[Dab].[CC(C)(C)[C@H](N[*:1])C(=O)[*:2]]}$PEPTIDE1,PEPTIDE1,1:R3-6:R3|PEPTIDE1,PEPTIDE1,1:R1-14:R2$$$V2.0)",1,2,2,1
"CC(C)[C@@H]1NC(=O)[C@@H]2CCCN2C(=O)[C@@H](C)NC(=O)[C@H](CO)NC(=O)[C@@H]2CC(=O)NCC[C@H](NC1=O)C(=O)N[C@@H](Cc1ccc(O)cc1)C(=O)N[C@@H](CCN)C(=O)N[C@@H](CN)C(=O)N[C@H](CCN)C(=O)N[C@@H](CCN)C(=O)N[C@@H](Cc1c[nH]c3ccccc13)C(=O)N[C@@H](CCN)C(=O)N[C@@H](C(C)(C)C)C(=O)N2 [Example 27, cyclo(-Val-Dab-Tyr-Dab-Dap-^DDab-Dab-Trp-Dab-tBuGly-Asp-Ser-^DAla-Pro-)] (cyclo(DS[dA]PV[Dab]Y[Dab][Dap][dDab][Dab]W[Dab][Tle]); lactam 1-6)",0.5,0.5,1,2
"CC(C)C[C@@H]1NC(=O)[C@H](CCCNC(=N)N)NC(=O)[C@H]2CCCN2C(=O)[C@H](C(C)C)NC(=O)[C@H]([C@@H](C)O)NC(=O)[C@H](C(C)C)NC(=O)[C@@H]2CSSC[C@H](NC(=O)[C@H](Cc3ccc(O)cc3)NC(=O)[C@H]([C@@H](C)O)NC1=O)C(=O)N[C@@H](CCN)C(=O)N[C@@H](CCN)C(=O)N[C@@H](CCN)C(=O)N[C@@H](Cc1c[nH]c3ccccc13)C(=O)N2 [Example 35, cyclo(-Leu-Thr-Tyr-Cys-Dab-Dab-Dab-Trp-Cys-Val-Thr-Val-^DPro-Arg-)] (HELM PEPTIDE1{C.[Dab].[Dab].[Dab].W.C.V.T.V.[dP].R.L.T.Y}$PEPTIDE1,PEPTIDE1,1:R3-6:R3|PEPTIDE1,PEPTIDE1,1:R1-14:R2$$$V2.0)",2,2,1,4
"CC(C)C[C@@H]1NC(=O)[C@H](CCCNC(=N)N)NC(=O)[C@H]2CCCN2C(=O)[C@H](C(C)C)NC(=O)[C@H]([C@@H](C)O)NC(=O)[C@H](C(C)C)NC(=O)[C@@H]2CSSC[C@H](NC(=O)[C@H](Cc3ccc(O)cc3)NC(=O)[C@H]([C@@H](C)O)NC1=O)C(=O)N[C@@H](CCN)C(=O)N[C@H](CCN)C(=O)N[C@@H](CCN)C(=O)N[C@@H](Cc1c[nH]c3ccccc13)C(=O)N2 [Example 36, cyclo(-Leu-Thr-Tyr-Cys-Dab-^DDab-Dab-Trp-Cys-Val-Thr-Val-^DPro-Arg-)] (HELM PEPTIDE1{C.[Dab].[NCC[C@@H](N[*:1])C(=O)[*:2]].[Dab].W.C.V.T.V.[dP].R.L.T.Y}$PEPTIDE1,PEPTIDE1,1:R3-6:R3|PEPTIDE1,PEPTIDE1,1:R1-14:R2$$$V2.0)",2,4,2,2
"CC(C)C[C@@H]1NC(=O)[C@H](CCN)NC(=O)[C@H]2CCCN2C(=O)[C@H](C(C)C)NC(=O)[C@H]([C@@H](C)O)NC(=O)[C@H](C(C)C)NC(=O)[C@@H]2CSSC[C@H](NC(=O)[C@H](Cc3ccc(O)cc3)NC(=O)[C@H]([C@@H](C)O)NC1=O)C(=O)N[C@@H](CCN)C(=O)N[C@H](CCN)C(=O)N[C@@H](CCN)C(=O)N[C@@H](Cc1c[nH]c3ccccc13)C(=O)N2 [Example 37, cyclo(-Leu-Thr-Tyr-Cys-Dab-^DDab-Dab-Trp-Cys-Val-Thr-Val-^DPro-Dab-)] (HELM PEPTIDE1{C.[Dab].[NCC[C@@H](N[*:1])C(=O)[*:2]].[Dab].W.C.V.T.V.[dP].[Dab].L.T.Y}$PEPTIDE1,PEPTIDE1,1:R3-6:R3|PEPTIDE1,PEPTIDE1,1:R1-14:R2$$$V2.0)",2,4,2,2
"CC(C)C[C@@H]1NC(=O)[C@H](CCN)NC(=O)[C@@H](CCN)NC(=O)[C@H](CO)NC(=O)[C@H](C)NC(=O)[C@H](Cc2ccc(O)cc2)NC(=O)[C@@H]2CSSC[C@H](NC(=O)[C@H](Cc3ccc(O)cc3)NC(=O)[C@H](CO)NC1=O)C(=O)N[C@@H](CCCN)C(=O)N[C@H](CCN)C(=O)N[C@@H](CCN)C(=O)N[C@@H](Cc1c[nH]c3ccccc13)C(=O)N2 [Example 38, cyclo(-Leu-Ser-Tyr-Cys-Orn-^DDab-Dab-Trp-Cys-Tyr-Ala-Ser-^DDab-Dab-)] (HELM PEPTIDE1{A.S.[NCC[C@@H](N[*:1])C(=O)[*:2]].[Dab].L.S.Y.C.[Orn].[NCC[C@@H](N[*:1])C(=O)[*:2]].[Dab].W.C.Y}$PEPTIDE1,PEPTIDE1,8:R3-13:R3|PEPTIDE1,PEPTIDE1,1:R1-14:R2$$$V2.0)",2,2,3,1

# More lines, main results first:
Klebsiella pneumoniae ATCC 13883 MIC [2] [µg/mL],Escherichia coli ATCC 25922 MIC [3] [µg/mL],Acinetobacter baumannii DSM 30008 MIC [4] [µg/mL],SMILES,Hemolysis at 100 μg/mL [1] [%]
0.5,0.5,1,"CC(C)[C@@H]1NC(=O)[C@@H]2CCCN2C(=O)[C@@H]([C@H](C)O)NC(=O)[C@H]([C@@H](C)O)NC(=O)[C@@H]2CC(=O)NCC[C@H](NC1=O)C(=O)N[C@@H](Cc1ccc(O)cc1)C(=O)N[C@@H](CCN)C(=O)N[C@@H](CN)C(=O)N[C@H](CCN)C(=O)N[C@@H](CCN)C(=O)N[C@@H](Cc1c[nH]c3ccccc13)C(=O)N[C@@H](CCN)C(=O)N[C@@H](C(C)(C)C)C(=O)N2 [Example 29, cyclo(-Val-Dab-Tyr-Dab-Dap-^DDab-Dab-Trp-Dab-tBuGly-Asp-Thr-^DThr-Pro-)] (cyclo(V[Dab]Y[Dab][Dap][dDab][Dab]W[Dab][Tle]DT[dT]P); lactam 2-11)",2
2,1,8,"CC(C)[C@@H]1NC(=O)[C@H](C)NC(=O)[C@@H](C)NC(=O)[C@H](CO)NC(=O)[C@@H]2CC(=O)NCC[C@H](NC1=O)C(=O)N[C@@H](Cc1ccc(O)cc1)C(=O)N[C@@H](CCN)C(=O)N[C@@H](CCN)C(=O)N[C@H](CCN)C(=O)N[C@@H](CCN)C(=O)N[C@@H](Cc1c[nH]c3ccccc13)C(=O)N[C@@H](CCN)C(=O)N[C@@H](C(C)(C)C)C(=O)N2 [Example 30, cyclo(-Val-Dab-Tyr-Dab-Dab-^DDab-Dab-Trp-Dab-tBuGly-Asp-Ser-^DAla-Ala-)] (HELM PEPTIDE1{A.V.[Dab].Y.[Dab].[Dab].[NCC[C@@H](N[*:1])C(=O)[*:2]].[Dab].W.[Dab].[CC(C)(C)[C@H](N[*:1])C(=O)[*:2]].D.S.[dA]}$PEPTIDE1,PEPTIDE1,3:R3-12:R3|PEPTIDE1,PEPTIDE1,1:R1-14:R2$$$V2.0)",1
1,1,4,"CC(C)[C@@H]1NC(=O)[C@H](Cc2ccc(O)cc2)NC(=O)[C@@H](C)NC(=O)[C@H](CO)NC(=O)[C@@H]2CC(=O)NCC[C@H](NC1=O)C(=O)N[C@@H](Cc1ccc(O)cc1)C(=O)N[C@@H](CCN)C(=O)N[C@@H](CN)C(=O)N[C@H](CCN)C(=O)N[C@@H](CCN)C(=O)N[C@@H](Cc1c[nH]c3ccccc13)C(=O)N[C@@H](CN)C(=O)N[C@@H](C(C)(C)C)C(=O)N2 [Example 31, cyclo(-Val-Dab-Tyr-Dab-Dap-^DDab-Dab-Trp-Dap-tBuGly-Asp-Ser-^DAla-Tyr-)] (cyclo(DS[dA]YV[Dab]Y[Dab][Dap][dDab][Dab]W[Dap][Tle]); lactam 1-6)",1
2,1,1,"CC(C)C[C@@H]1NC(=O)[C@@H]2CCCN2C(=O)[C@H]2CCCN2C(=O)[C@H](CO)NC(=O)[C@@H]2NC(=O)[C@H](C3CCCCC3)NC(=O)[C@H](CCN)NC(=O)[C@H](Cc3c[nH]c4ccccc34)NC(=O)[C@H](CCN)NC(=O)[C@@H](CCN)NC(=O)[C@H](CCCN)NC(=O)[C@H](CCN)NC(=O)[C@H](C(C)(C)C)NC(=O)[C@H](NC1=O)C(C)(C)SSC2(C)C [Example 33, cyclo(-Leu-Pen-tBuGly-Dab-Orn-DDab-Dab-Trp-Dab-Chg-Pen-Ser-^DPro-Pro-)] (cyclo(L[dPen][Tle][Dab][Orn][dDab][Dab]W[Dab][Chg][dPen]S[dP]P); disulfide 2-11)",1
2,4,4,"CC(C)[C@@H]1NC(=O)[C@@H]2CCCN2C(=O)[C@H]2CCCN2C(=O)[C@H](CO)NC(=O)[C@@H]2CCn3cc(nn3)C[C@H](NC1=O)C(=O)N[C@@H](Cc1ccc(O)cc1)C(=O)N[C@@H](CCN)C(=O)N[C@@H](CN)C(=O)N[C@H](CCN)C(=O)N[C@@H](CCN)C(=O)N[C@@H](Cc1c[nH]c3ccccc13)C(=O)N[C@@H](CCN)C(=O)N[C@@H](C(C)(C)C)C(=O)N2 [Example 34, cyclo(-Val-Pra-Tyr-Dab-Dap-^DDab-Dab-Trp-Dab-tBuGly-Abu(4N3)-Ser-^DPro-Pro-)] (cyclo(V[Pra]Y[Dab][Dap][dDab][Dab]W[Dab][Tle][Aha]S[dP]P); triazole 2-11)",0
